A short description of data set [1]: Atmospheric lifetime from rate of reaction with hydroxyl radicals. The data set is classed as physicochemical. The settings on record: gas phase, relative to reference compounds such as chloromethane and ethane, FTIR. The method, then:
Atmospheric lifetime: The atmospheric lifetime of Example 1 was determined from the rate of reaction with hydroxyl radicals. The pseudo-first order rate for the reaction of the gaseous hydrobromofluoroolefin with hydroxyl radical was measured in a series of experiments relative to reference compounds such as chloromethane and ethane. The measurements were performed in a 5.7 L, heated FTIR gas cell equipped with a polished semiconductor-grade quartz window. An Oriel Instruments UV Lamp, Model 66921 equipped with a 480 W mercury-xenon bulb was used to generate hydroxyl radicals by photolyzing ozone in the presence of water vapor. The concentrations of the hydrobromofluoroolefin and the reference compound were measured as a function of reaction time using an I-Series FTIR from Midac Corporation, Westfield, Mass., US. The atmospheric lifetime was calculated from the reaction rates for the hydrobromofluoroolefin relative to the reference compounds and the reported lifetime of the reference compounds as shown below:
[formula] where τx is the atmospheric lifetime of hydrobromofluoroolefin, τr is the atmospheric lifetime of the reference compound, and kx and kr are the rate constants for the reaction of hydroxyl radical with hydrobromofluoroolefin and the reference compound, respectively. Sample Preparation

Data set [2] is described as follows: Largest Soluble Hydrocarbon (LSH) test. To be noted: compound:hydrocarbon about 1:1 to 1:2 by weight. It counts as physicochemical. The method, then:
Largest Soluble Hydrocarbon (LSH): The LSH of each hydrofluoroolefin compound was determined by mixing the compound with hydrocarbons of varying molecular weight (CnH2n+2, where n=9 to 24) in a hydrofluoroolefin:hydrocarbon ratio of about 1:1 to 1:2 by weight at room temperature (25° C.) and at 50° C. […] A larger value of n is interpreted herein to indicate a greater ability of the hydrofluoroolefin to clean hydrocarbons.
The results presented in Table 2 indicate that the hydrofluoroolefins of the present invention are highly suitable fluids for cleaning applications.

[3] abbreviates: 25° C., longest hydrocarbon compatible without haze.
Setting [4] is: 50° C., largest hydrocarbon used C-23.

A value given as a limit tells only on which side of the number the result lay.

On to `COC(=C(Cl)C(F)(F)F)C(F)(F)F` [Example 1, 2-Chloro-1,1,1,4,4,4-hexafluoro-3-methoxybut-2-ene], for which the atmospheric lifetime in data set [1] is 0.04 years. The “LSH (n in CnH2n+2)” value in data set [2] (setting [3]) was 19; in data set [2] (setting [4]), >23.
In the case of `COC1=C(Cl)C(F)(F)C(F)(F)C1(F)F` [Example 4, 1-Chloro-3,3,4,4,5,5-hexafluoro-2-methoxycyclopent-1-ene], the “LSH (n in CnH2n+2)” value is on record as 19 in data set [2] (setting [3]) and >23 in data set [2] (setting [4]).

Source of the values: patent US11773352B2, “Hydrochlorofluoroolefins and methods of using same” (3M INNOVATIVE PROPERTIES COMPANY, priority 2018, dated 2023).
